pEC50: −log10 of the molar value.
System: HCV 1b-377-neo replicon cells
Experiment: HCV replicon assay, HCV 1b-377-neo replicon cells (1b FRET)
Assay type: cell-based, Hepatitis C virus genotype 1b
Details: Hepatitis C virus, HCV 1b-377-neo replicon cells; HCV 1b genotype; read-out: EC50 range against HCV 1b (Table 2, Range)
In short: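 Compounds were tested in genotype 1b subgenomic replicon cells carrying a neomycin marker, alongside a matched replicon line with an NS5A Y2065H substitution that confers resistance to a reference NS5A inhibitor.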

| Structure (SMILES) | pEC50 |
| --- | --- |
| CN(C)[C@@H](C(=O)N1CCC[C@H]1c1ncc(-c2ccc(-c3ccc(-c4cnc([C@@H]5CCCN5C(=O)[C@H]5CCCO5)[nH]4)cc3)cc2)[nH]1)c1ccccc1Cl [Example 107-38, (1R)-1-(2-chloro-phenyl)-N,N-dimethyl-2-oxo-2-((2S)-2-(5-(4′-(2-((2S)-1-((2R)-tetrahydro-2-furanylcarbonyl)-2-pyrrolidinyl)-1H-imidazol-5-yl)-4-biphenylyl)-1H-imidazol-2-yl)-1-pyrrolidinyl) ethanamine] | 9.00 to 12.00 |
| COC(=O)N[C@@H](C(=O)N1CCC[C@H]1c1ncc(-c2ccc(-c3ccc(-c4cnc([C@@H]5CCCN5C(=O)[C@H]5CCCO5)[nH]4)cc3)cc2)[nH]1)c1ccccc1Cl [Example 107-39, methyl ((1R)-1-(2-chlorophenyl)-2-oxo-2-((2S)-2-(5-(4′-(2-((2S)-1-((2R)-tetrahydro-2-furanylcarbonyl)-2-pyrrolidinyl)-1H-imidazol-5-yl)-4-biphenylyl)-1H-imidazol-2-yl)-1-pyrrolidinyl)ethyl) carbamate] | 9.00 to 12.00 |
| COC(=O)N[C@@H](C(=O)N1CCC[C@H]1c1ncc(-c2ccc(-c3ccc(-c4cnc([C@@H]5CCCN5C(=O)[C@@H](c5ccccc5)N(C)C)[nH]4)cc3)cc2)[nH]1)c1ccccc1Cl [Example 107-40, methyl ((1R)-1-(2-chlorophenyl)-2-((2S)-2-(5-(4′-(2-((2S)-1-((2R)-2-(dimethylamino)-2-phenylacetyl)-2-pyrrolidinyl)-1H-imidazol-5-yl)-4-biphenylyl)-1H-imidazol-2-yl)-1-pyrrolidinyl)-2-oxoethyl) carbamate] | 9.00 to 12.00 |
| COC(=O)N[C@@H](C(=O)N1CCC[C@H]1c1ncc(-c2ccc(-c3ccc(-c4cnc([C@@H]5CCCN5C(=O)[C@H](NC(=O)OC)c5ccccc5Cl)[nH]4)cc3)cc2)[nH]1)c1ccccc1 [Example 107-41, methyl ((1R)-2-((2S)-2-(5-(4′-(2-((2S)-1-((2R)-2-(2-chlorophenyl)-2-((methoxy-carbonyl)amino)acetyl)-2-pyrrolidinyl)-1H-imidazol-5-yl)-4-biphenylyl)-1H-imidazol-2-yl)-1-pyrrolidinyl)-2-oxo-1-phenylethyl) carbamate] | 9.00 to 12.00 |
| COC(=O)N[C@@H](C(=O)N1CCC[C@H]1c1ncc(-c2ccc(-c3ccc(-c4cnc([C@@H]5CCCN5C(=O)[C@@H](c5ccccc5)N5CCC(C)(O)CC5)[nH]4)cc3)cc2)[nH]1)c1ccccc1Cl [Example 107-42, methyl ((1R)-1-(2-chlorophenyl)-2-((2S)-2-(5-(4′-(2-((2S)-1-((2R)-2-(4-hydroxy-4-methyl-1-piperidinyl)-2-phenylacetyl)-2-pyrrolidinyl)-1H-imidazol-5-yl)-4-biphenylyl)-1H-imidazol-2-yl)-1-pyrrolidinyl)-2-oxoethyl) carbamate] | 9.00 to 12.00 |
| COC(=O)N[C@@H](C(=O)N1CCC[C@H]1c1ncc(-c2ccc(-c3ccc(-c4cnc([C@@H]5CCCN5C(=O)[C@H](OC)c5ccccc5)[nH]4)cc3)cc2)[nH]1)c1ccccc1Cl [Example 107-43, methyl ((1R)-1-(2-chlorophenyl)-2-((2S)-2-(5-(4′-(2-((2S)-1-((2R)-2-methoxy-2-phenylacetyl)-2-pyrrolidinyl)-1H-imidazol-5-yl)-4-biphenylyl)-1H-imidazol-2-yl)-1-pyrrolidinyl)-2-oxoethyl) carbamate] | 9.00 to 12.00 |
| COC(=O)N[C@@H](C(=O)N1CCC[C@H]1c1ncc(-c2ccc(-c3ccc(-c4cnc([C@@H]5CCCN5C(=O)[C@@H](c5ccccc5Cl)N(C)C)[nH]4)cc3)cc2)[nH]1)c1ccccc1Cl [Example 107-44, methyl ((1R)-1-(2-chlorophenyl)-2-((2S)-2-(5-(4′-(2-((2S)-1-((2R)-2-(2-chloro-phenyl)-2-(dimethylamino)acetyl)-2-pyrrolidinyl)-1H-imidazol-5-yl)-4-biphenylyl)-1H-imidazol-2-yl)-1-pyrrolidinyl)-2-oxoethyl) carbamate] | 9.00 to 12.00 |
| CCNC(=O)N1CCC[C@H]1c1ncc(-c2ccc(-c3ccc(-c4cnc([C@@H]5CCCN5C(=O)[C@H](NC(=O)OC)c5ccccc5)[nH]4)cc3)cc2)[nH]1 [Example 108, methyl ((1R)-2-((2S)-2-(5-(4′-(2-((2S)-1-(ethylcarbamoyl)-2-pyrrolidinyl)-1H-imidazol-5-yl)-4-biphenylyl)-1H-imidazol-2-yl)-1-pyrrolidinyl)-2-oxo-1-phenylethyl)carbamate] | 9.00 to 12.00 |
| O=C(OCc1ccccc1)N1CCC[C@H]1c1ncc(-c2ccc(-c3ccc(-c4cnc([C@@H]5CCCN5C(=O)OCc5ccccc5)[nH]4)cc3)cc2)[nH]1 [Example 109, dibenzyl (2S,2′S)-2,2′-(4,4′-biphenyldiylbis(1H-imidazole-5,2-diyl))di(1-pyrrolidinecarboxylate)] | 7.00 to 9.00 |
| O=C(N[C@@H](C(=O)N1CCC[C@H]1c1ncc(-c2ccc(-c3ccc(-c4cnc([C@@H]5CCCN5C(=O)[C@@H]5CCCO5)[nH]4)cc3)cc2)[nH]1)c1ccccc1)[C@H]1CCCO1 [Example 110, (2R)—N-((1R)-2-oxo-1-phenyl-2-((2S)-2-(5-(4′-(2-((2S)-1-((2S)-tetrahydro-2-furanylcarbonyl)-2-pyrrolidinyl)-1H-imidazol-5-yl)-4-biphenylyl)-1H-imidazol-2-yl)-1-pyrrolidinyl)ethyl)tetrahydro-2-furancarboxamide] | 9.00 to 12.00 |
| O=C(N[C@@H](C(=O)N1CCC[C@H]1c1ncc(-c2ccc(-c3ccc(-c4cnc([C@@H]5CCCN5C(=O)[C@@H]5CCCO5)[nH]4)cc3)cc2)[nH]1)c1ccccc1)N1CCOCC1 [Example 111, N-((1R)-2-oxo-1-phenyl-2-((2S)-2-(5-(4′-(2-((2S)-1-((2S)-tetrahydro-2-furanylcarbonyl)-2-pyrrolidinyl)-1H-imidazol-5-yl)-4-biphenylyl)-1H-imidazol-2-yl)-1-pyrrolidinyl)ethyl)-4-morpholinecarboxamide] | 9.00 to 12.00 |
| O=C(N[C@@H](C(=O)N1CCC[C@H]1c1ncc(-c2ccc(-c3ccc(-c4cnc([C@@H]5CCCN5C(=O)[C@@H]5CCCO5)[nH]4)cc3)cc2)[nH]1)c1ccccc1)[C@@H]1CCCO1 [Example 112, (2S)-N-((1R)-2-oxo-1-phenyl-2-((2S)-2-(5-(4′-(2-((2S)-1((2S)-tetrahydro-2-furanylcarbonyl)-2-pyrrolidinyl)-1H-imidazol-5-yl)-4-biphenylyl)-1H-imidazol-2-yl)-1-pyrrolidinyl)ethyl) tetrahydro-2-furancarboxamide] | 9.00 to 12.00 |
| CN1CCC[C@H]1C(=O)N[C@@H](C(=O)N1CCC[C@H]1c1ncc(-c2ccc(-c3ccc(-c4cnc([C@@H]5CCCN5C(=O)[C@@H]5CCCO5)[nH]4)cc3)cc2)[nH]1)c1ccccc1 [Example 113, 1-methyl-N-((1R)-2-oxo-1-phenyl-2-((2S)-2-(5-(4′-(2-((2S)-1-((2S)-tetrahydro-2-furanylcarbonyl)-2-pyrrolidinyl)-1H-imidazol-5-yl)-4-biphenylyl)-1H-imidazol-2-yl)-1-pyrrolidinyl)ethyl)-L-prolinamide] | 9.00 to 12.00 |
| CN1CCC(C(=O)N[C@@H](C(=O)N2CCC[C@H]2c2ncc(-c3ccc(-c4ccc(-c5cnc([C@@H]6CCCN6C(=O)[C@@H]6CCCO6)[nH]5)cc4)cc3)[nH]2)c2ccccc2)CC1 [Example 114, 1-methyl-N-((1R)-2-oxo-1-phenyl-2-((2S)-2-(5-(4′-(2-((2S)-1-((2S)-tetrahydro-2-furanylcarbonyl)-2-pyrrolidinyl)-1H-imidazol-5-yl)-4-biphenylyl)-1H-imidazol-2-yl)-1-pyrrolidinyl)ethyl)-4-piperidinecarboxamide] | 9.00 to 12.00 |
| O=C(N[C@@H](C(=O)N1CCC[C@H]1c1ncc(-c2ccc(-c3ccc(-c4cnc([C@@H]5CCCN5C(=O)[C@@H]5CCCO5)[nH]4)cc3)cc2)[nH]1)c1ccccc1)C1CCOCC1 [Example 115, N-((1R)-2-oxo-1-phenyl-2-((2S)-2-(5-(4′-(2-((2S)-1-((2S)-tetrahydro-2-furanylcarbonyl)-2-pyrrolidinyl)-1H-imidazol-5-yl)-4-biphenylyl)-1H-imidazol-2-yl)-1-pyrrolidinyl)ethyl) tetrahydro-2H-pyran-4-carboxamide] | 9.00 to 12.00 |
| CN1C[C@H](F)C[C@H]1C(=O)N[C@@H](C(=O)N1CCC[C@H]1c1ncc(-c2ccc(-c3ccc(-c4cnc([C@@H]5CCCN5C(=O)[C@@H]5CCCO5)[nH]4)cc3)cc2)[nH]1)c1ccccc1 [Example 116, (4R)-4-fluoro-1-methyl-N-((1R)-2-oxo-1-phenyl-2-((2S)-2-(5-(4′-(2-((2S)-1-((2S)-tetrahydro-2-furanylcarbonyl)-2-pyrrolidinyl)-1H-imidazol-5-yl)-4-biphenylyl)-1H-imidazol-2-yl)-1-pyrrolidinyl)ethyl)-L-prolinamide] | 9.00 to 12.00 |
| CN1CCN(C(=O)N[C@@H](C(=O)N2CCC[C@H]2c2ncc(-c3ccc(-c4ccc(-c5cnc([C@@H]6CCCN6C(=O)[C@@H]6CCCO6)[nH]5)cc4)cc3)[nH]2)c2ccccc2)CC1 [Example 117, 4-methyl-N-((1R)-2-oxo-1-phenyl-2-((2S)-2-(5-(4′-(2-((2S)-1-((2S)-tetrahydro-2-furanylcarbonyl)-2-pyrrolidinyl)-1H-imidazol-5-yl)-4-biphenylyl)-1H-imidazol-2-yl)-1-pyrrolidinyl)ethyl)-1-piperazinecarboxamide] | 9.00 to 12.00 |
| CC(=O)N[C@@H](C(=O)N1CCC[C@H]1c1ncc(-c2ccc(-c3ccc(-c4cnc([C@@H]5CCCN5C(=O)[C@H]5CCCO5)[nH]4)cc3)cc2)[nH]1)c1ccccc1 [Example 118, N-((1R)-2-oxo-1-phenyl-2-((2S)-2-(5-(4′-(2-((2S)-1-((2R)-tetrahydro-2-furanylcarbonyl)-2-pyrrolidinyl)-1H-imidazol-5-yl)-4-biphenylyl)-1H-imidazol-2-yl)-1-pyrrolidinyl)ethyl) acetamide] | 9.00 to 12.00 |
| O=C(N[C@@H](C(=O)N1CCC[C@H]1c1ncc(-c2ccc(-c3ccc(-c4cnc([C@@H]5CCCN5C(=O)[C@H]5CCCO5)[nH]4)cc3)cc2)[nH]1)c1ccccc1)[C@H]1CCCO1 [Example 119, (2R)-N-((1R)-2-oxo-1-phenyl-2-((2S)-2-(5-(4′-(2-((2S)-1-((2R)-tetrahydro-2-furanylcarbonyl)-2-pyrrolidinyl)-1H-imidazol-5-yl)-4-biphenylyl)-1H-imidazol-2-yl)-1-pyrrolidinyl)ethyl)tetrahydro-2-furancarboxamide] | 9.00 to 12.00 |

From patent US8574563B2 (Bristol-Myers Squibb Company, priority 2006, dated 2013)
